The DC50 is the concentration giving 50% degradation. As usually defined, the Dmax is the greatest extent of degradation seen. A lower Dmax goes with shallow degradation.

These results are taken from patent publication US20240190886A1, “BRM Targeting Compounds and Associated Methods of Use” (Prelude Therapeutics Incorporated, priority 2022, published 2024).

The test system of test [1] is SMARCA4 mutated cancer cells. The note with it: SMARCA 2/4 bromodomain inhibitors; literature statement; cited from earlier work.
For the next test, the target named is T1, SMARCA2 (Homo sapiens, UniProt P51531).
T1 construct: SMARCA2-HiBiT knock-in Hela monoclonal cell (CS302366) and SMARCA4-HiBiT knock-in Hela monoclonal cell (CS3023226) were purchased from Promega; host or cells: HeLa SMARCA2-HiBiT knock-in monoclonal cells (heterozygous knock-in)
T1 sequence (P51531 whole entry): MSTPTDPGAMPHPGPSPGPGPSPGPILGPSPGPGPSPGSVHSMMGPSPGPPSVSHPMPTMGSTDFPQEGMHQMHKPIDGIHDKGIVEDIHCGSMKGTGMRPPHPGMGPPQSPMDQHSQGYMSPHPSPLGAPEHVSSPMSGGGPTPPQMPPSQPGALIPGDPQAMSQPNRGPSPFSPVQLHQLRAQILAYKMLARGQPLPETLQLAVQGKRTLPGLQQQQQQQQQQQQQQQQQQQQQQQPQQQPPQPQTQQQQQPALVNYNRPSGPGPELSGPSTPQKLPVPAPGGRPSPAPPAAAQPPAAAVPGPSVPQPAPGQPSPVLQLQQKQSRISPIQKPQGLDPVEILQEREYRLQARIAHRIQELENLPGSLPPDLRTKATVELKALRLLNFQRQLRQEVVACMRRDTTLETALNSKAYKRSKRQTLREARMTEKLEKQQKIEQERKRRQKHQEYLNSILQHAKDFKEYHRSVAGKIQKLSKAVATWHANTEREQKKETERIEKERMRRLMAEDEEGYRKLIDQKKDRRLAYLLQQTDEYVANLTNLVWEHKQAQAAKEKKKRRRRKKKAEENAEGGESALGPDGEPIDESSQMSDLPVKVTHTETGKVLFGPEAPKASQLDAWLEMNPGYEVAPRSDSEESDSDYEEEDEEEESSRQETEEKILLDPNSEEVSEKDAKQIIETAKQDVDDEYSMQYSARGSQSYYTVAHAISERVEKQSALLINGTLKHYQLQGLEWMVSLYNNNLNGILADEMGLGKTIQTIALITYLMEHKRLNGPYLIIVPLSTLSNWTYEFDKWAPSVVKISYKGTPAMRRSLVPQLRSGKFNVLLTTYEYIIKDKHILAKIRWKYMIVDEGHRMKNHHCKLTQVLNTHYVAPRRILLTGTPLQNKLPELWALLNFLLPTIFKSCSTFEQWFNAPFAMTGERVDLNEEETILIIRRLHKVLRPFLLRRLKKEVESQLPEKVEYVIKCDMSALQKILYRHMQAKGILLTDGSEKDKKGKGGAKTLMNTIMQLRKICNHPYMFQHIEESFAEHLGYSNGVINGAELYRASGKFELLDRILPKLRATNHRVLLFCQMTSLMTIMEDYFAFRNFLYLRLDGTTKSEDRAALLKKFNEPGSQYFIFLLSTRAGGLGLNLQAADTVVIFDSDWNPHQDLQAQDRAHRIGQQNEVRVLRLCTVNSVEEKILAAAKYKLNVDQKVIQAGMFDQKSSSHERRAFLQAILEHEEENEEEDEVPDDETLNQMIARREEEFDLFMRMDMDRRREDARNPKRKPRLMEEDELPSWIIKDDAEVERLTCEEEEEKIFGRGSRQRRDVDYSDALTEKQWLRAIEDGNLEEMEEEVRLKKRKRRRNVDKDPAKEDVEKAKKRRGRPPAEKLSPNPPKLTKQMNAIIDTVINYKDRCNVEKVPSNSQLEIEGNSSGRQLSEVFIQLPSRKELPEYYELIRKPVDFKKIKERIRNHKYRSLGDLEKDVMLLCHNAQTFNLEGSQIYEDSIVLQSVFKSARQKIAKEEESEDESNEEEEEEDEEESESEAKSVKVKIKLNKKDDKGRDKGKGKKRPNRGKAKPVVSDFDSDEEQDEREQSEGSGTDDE
As to the kind of experiment: SMARCA2 HiBiT degradation assay in HeLa cells. The test is classed as cell-based. Particulars: 18 hours incubation, Nano-Glo HiBiT Lytic detection. The procedure:
(§1) Example A. SMARCA2 HiBiT and SMARCA4 HiBiT Degradation Assay
(§2) HiBiT peptide knock-in of SMARCA2 in LgBiT expressing HEK293T cells was performed by CRISPR-mediated tagging system as described Promega. The homozygous HiBiT knock-in on c-terminus SMARCA2 was confirmed by sanger sequence. SMARCA2-HiBiT knock-in Hela monoclonal cell (CS302366) and SMARCA4-HiBiT knock-in Hela monoclonal cell (CS3023226) were purchased from Promega. The heterozygous HiBiT-knock-in was confirmed by sanger sequence in both SMARCA2-HiBiT and SMARCA4-HiBiT monoclonal cells.
(§3) SMARCA2 HiBiT and SMARCA4 HiBiT degradation assay in HeLa cells
(§4) Dispense 10 ul aliquot of prepared Hela-SMARCA2-HiBiT or Hela-SMARCA4-HiBiT cells (1:1 ratio of cells:Trypan Blue (#1450013, Bio-Rad)) onto cell counting slide (#145-0011, Bio-Rad) and obtain cell density and cell viability using cell counter (TC20, Bio-Rad). Remove appropriate volume of resuspended cells from culture flask to accommodate 2500 cells/well @20 μL/well. Transfer Hela-HiBiT cells to 50 mL conical (#430290, Corning). Spin down at 1000 rpm for 5 min using tabletop centrifuge (SPINCHRON 15, Beckman). Discard supernatant and resuspend cell pellet in modified EMEM (#30-2003, ATCC) cell culture media containing 10% FBS (F2422-500ML, Sigma), and 1X Penicillin/Streptomycin (200 g/L) (30-002-CI, Corning) to a cell density of 125,000 cells/mL. Dispense 20 μLof resuspended Hela-HiBit cells per well in 384-well TC treated plate (#12-565-343, Thermo Scientific) using standard cassette (#50950372, Thermo Scientific) on Multidrop Combi (#5840310, Thermo Scientific) inside laminar flow cabinet.
(§5) Compounds were dissolved in DMSO to make 10 mM stock and 3-fold series dilutions were further conducted keeping the highest concentration 10 RM. Dispense test compounds onto plates using digital liquid dispenser (D300E, Tecan). Incubate plates in humidified tissue culture incubator @37° C. for 18 hours. Add 20 μL of prepared Nano-Glo® HiBiT Lytic detection buffer (N3050, Promega) to each well of 384-well plate using small tube cassette (#24073295, Thermo Scientific) on Multidrop Combi, incubate @ RT for 30-60 min. Read plates on microplate reader (Envision 2105, PerkinElmer) using 384 well Ultra-Sensitive luminescence mode. Raw data files and compound information reports are swept into centralized data lake and deconvoluted using automated scripts designed by TetraScience, Inc. Data analysis, curve-fitting and reporting done in Dotmatics Informatics Suite using Screening Ultra module.
(§6) In Table 1, A=DC50<0.1 RM; B=0.1 μM≤DC50<1 μM and C=DC50>1 μM. In Table 4, A=Dmax>75% and B=50%<Dmax<75% and C=Dmax<50%.
On the technique in general: The HiBiT peptide binds its large partner to form an active luciferase.

For a further test, the target named is T2, SMARCA4 (Homo sapiens, UniProt P51532).
T2 construct: SMARCA2-HiBiT knock-in Hela monoclonal cell (CS302366) and SMARCA4-HiBiT knock-in Hela monoclonal cell (CS3023226) were purchased from Promega; host or cells: HeLa SMARCA4-HiBiT knock-in monoclonal cells (heterozygous knock-in)
T2 sequence (P51532 whole entry): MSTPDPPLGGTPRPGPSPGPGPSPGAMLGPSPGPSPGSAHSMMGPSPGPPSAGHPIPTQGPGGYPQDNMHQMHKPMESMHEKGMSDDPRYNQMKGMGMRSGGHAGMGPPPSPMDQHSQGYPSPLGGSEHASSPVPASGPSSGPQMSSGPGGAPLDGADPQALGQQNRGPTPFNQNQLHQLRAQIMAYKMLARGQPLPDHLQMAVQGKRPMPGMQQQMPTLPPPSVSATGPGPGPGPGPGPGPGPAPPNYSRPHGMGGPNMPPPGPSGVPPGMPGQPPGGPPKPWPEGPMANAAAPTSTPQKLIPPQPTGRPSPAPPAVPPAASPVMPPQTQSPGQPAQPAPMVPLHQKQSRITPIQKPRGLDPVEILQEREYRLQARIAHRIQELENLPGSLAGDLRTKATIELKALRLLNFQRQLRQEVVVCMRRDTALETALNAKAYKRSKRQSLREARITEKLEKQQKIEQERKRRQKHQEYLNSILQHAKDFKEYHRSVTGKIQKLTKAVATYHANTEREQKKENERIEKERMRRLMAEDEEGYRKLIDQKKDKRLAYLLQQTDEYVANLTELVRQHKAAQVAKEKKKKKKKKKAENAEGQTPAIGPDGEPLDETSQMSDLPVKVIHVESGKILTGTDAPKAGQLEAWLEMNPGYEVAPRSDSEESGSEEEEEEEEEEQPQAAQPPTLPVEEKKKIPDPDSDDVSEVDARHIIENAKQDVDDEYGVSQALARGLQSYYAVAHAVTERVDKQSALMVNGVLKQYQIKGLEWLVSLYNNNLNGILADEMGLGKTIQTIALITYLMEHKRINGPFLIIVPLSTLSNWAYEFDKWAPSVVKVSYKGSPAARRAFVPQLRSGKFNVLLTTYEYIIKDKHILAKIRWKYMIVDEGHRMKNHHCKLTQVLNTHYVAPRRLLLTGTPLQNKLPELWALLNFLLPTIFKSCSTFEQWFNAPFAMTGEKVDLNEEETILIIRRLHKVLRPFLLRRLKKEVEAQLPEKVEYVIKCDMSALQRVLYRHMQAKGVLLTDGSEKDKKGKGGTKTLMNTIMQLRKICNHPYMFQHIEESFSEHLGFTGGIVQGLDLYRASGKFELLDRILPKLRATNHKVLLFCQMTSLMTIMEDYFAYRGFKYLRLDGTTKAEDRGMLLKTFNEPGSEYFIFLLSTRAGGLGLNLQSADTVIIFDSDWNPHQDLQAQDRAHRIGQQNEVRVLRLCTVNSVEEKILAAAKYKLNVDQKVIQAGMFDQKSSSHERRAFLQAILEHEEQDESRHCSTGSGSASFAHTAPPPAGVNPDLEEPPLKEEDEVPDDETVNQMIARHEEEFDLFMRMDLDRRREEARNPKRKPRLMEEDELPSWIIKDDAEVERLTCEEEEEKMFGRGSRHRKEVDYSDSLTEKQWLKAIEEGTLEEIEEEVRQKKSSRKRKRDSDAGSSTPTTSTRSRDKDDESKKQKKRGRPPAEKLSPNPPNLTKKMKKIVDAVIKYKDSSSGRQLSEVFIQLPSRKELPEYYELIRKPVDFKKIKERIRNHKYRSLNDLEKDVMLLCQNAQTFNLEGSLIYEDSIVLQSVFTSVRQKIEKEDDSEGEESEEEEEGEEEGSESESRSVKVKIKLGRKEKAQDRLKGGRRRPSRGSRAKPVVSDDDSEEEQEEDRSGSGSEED
As to the kind of experiment: SMARCA4 HiBiT degradation assay in HeLa cells. Type of test: cell-based. Particulars: 18 hours incubation, Nano-Glo HiBiT Lytic detection. The procedure: as §1, §2, §3, §4, §5, §6

As to `O=C(/C=C/N1C[C@H]2C[C@@H]1CN2c1ccccn1)c1ccccc1O` [PFI-3], the “effects on cell proliferation inhibition” value in test [1] is “none to minor effects”.
For the molecule `C[C@@H]1CN(CC2CCN(c3ccc4cn(C5CCC(=O)NC5=O)nc4c3)CC2)C[C@H](C)N1C(=O)N1CCN2c3cc(-c4ccccc4O)nnc3NC[C@H]2C1` (stereo partly drawn) [Example 4, 3-(6-(4-(((3S,5R)-4-((S)-2-(2-hydroxyphenyl)-6,6a,7,8,9,10-hexahydro-5H-pyrazino[1′,2′:4,5]pyrazino[2,3-c]pyridazine-8-carbonyl)-3,5-dimethylpiperazin-1-yl)methyl)piperidin-1-yl)-2H-indazol-2-yl)piperidine-2,6-dione], on SMARCA2, the DC50 is below 0.1 µM and the Dmax is 50 to 75%. Also, at SMARCA4, the DC50 was below 0.1 µM and the Dmax lay within 50 to 75%.
Consider `O=C1CCC(c2ccc(C3CCN(Cc4ccc(O[C@H]5CN6c7cc(-c8ccccc8O)nnc7NC[C@@]6(C(F)F)C5)nc4)CC3)cc2)C(=O)N1` (stereo partly drawn) [Example 15, 3-(4-(1-((6-(((6aR,8R)-6a-(difluoromethyl)-2-(2-hydroxyphenyl)-5,6,6a,7,8,9-hexahydropyrrolo[1′,2′:4,5]pyrazino[2,3-c]pyridazin-8-yl)oxy)pyridin-3-yl)methyl)piperidin-4-yl)phenyl)piperidine-2,6-dione], for which the DC50 on SMARCA2 and at SMARCA4 was below 0.1 µM each time. Further, the Dmax at SMARCA2 was 50 to 75%; on SMARCA4 it was above 75%.
Turning to `C[C@@H]1CN(CC2CCN(c3ccc(C(=O)NC4CCC(=O)NC4=O)c(F)c3)CC2)C[C@H](C)N1C(=O)N1CCN2c3cc(-c4ccccc4O)nnc3NC[C@H]2C1` (stereo partly drawn) [Example 1, N-(2,6-dioxopiperidin-3-yl)-2-fluoro-4-(4-(((3R,5S)-4-((S)-2-(2-hydroxyphenyl)-6,6a,7,8,9,10-hexahydro-5H-pyrazino[1′,2′:4,5]pyrazino[2,3-c]pyridazine-8-carbonyl)-3,5-dimethylpiperazin-1-yl)methyl)piperidin-1-yl)benzamide], the DC50 is below 0.1 µM on SMARCA2 and above 1 µM on SMARCA4.
On SMARCA2, `Cn1nc(N2CCC(=O)NC2=O)c2ccc(N3CCC(CN4C[C@@H]5[C@H](C4)[C@H]5CN4CCN5c6cc(-c7ccccc7O)nnc6NC[C@H]5C4)CC3)cc21` [Example 8, 1-[6-[4-[[(1S,5R)-6-[[(10S)-4-(2-hydroxyphenyl)-1,5,6,8,12-pentazatricyclo[8.4.0.02,7]tetradeca-2,4,6-trien-12-yl]methyl]-3-azabicyclo[3.1.0]hexan-3-yl]methyl]piperidin-1-yl]-1-methylindazol-3-yl]-1,3-diazinane-2,4-dione] displayed a DC50 below 0.1 µM and a Dmax of 50 to 75%. On SMARCA4, this molecule had a DC50 below 0.1 µM and a Dmax of 50 to 75%.
